Values after ≈ are worked out from the molar mass of the structure shown. Active and inactive are the calls of the source. The calls are words filed in the database; no cut-off is given here.
Columns and labels:
Staphylococcus aureus [1] = assay: Antibacterial activity against Staphylococcus aureus CGMCC1.8721 assessed as reduction in bacterial growth; type: functional
Staphylococcus aureus [2] = assay: Antibacterial activity against methicillin-resistant Staphylococcus aureus ATCC 43300 assessed as reduction in bacterial growth in presence of Zn2+; type: functional
[3] = Cytotoxicity against human HEK293T cells assessed as cell viability upto 40 uM relative to control; type: toxicity, cell-based, HEK-293T; settings: read-out: Activity
Cell membrane [4] = assay: Disruption of cell membrane integrity in Staphylococcus aureus CGMCC1.8721 assessed as increase in protein leakage at 4 times MIC; type: subcellular
HepG2 = assay: Cytotoxicity against human HepG2 cells upto 20 uM; type: functional, cell-based
[5] = Hemolytic activity against rabbit Red blood cell assessed as hemolysis; type: toxicity, cell-based, Oryctolagus cuniculus, Erythrocyte; settings: red blood cells
Staphylococcus aureus [6] = assay: Antibacterial activity against Staphylococcus aureus CGMCC1.8721 assessed as reduction in metabolic activity at 1 to 4 times MIC by Alamar Blue assay; type: functional, organism-based
Staphylococcus aureus [7] = assay: Antibacterial activity against methicillin-resistant Staphylococcus aureus ATCC 43300 assessed as reduction in bacterial growth in presence of Mg2+; type: functional
Staphylococcus aureus [8] = assay: Antibacterial activity against methicillin-resistant Staphylococcus aureus ATCC 43300 assessed as reduction in bacterial growth in presence of Ca2+; type: functional
Cell membrane [9] = assay: Disruption of cell membrane integrity in Staphylococcus aureus CGMCC1.8721 assessed as appearance of wrinkled cell surface at 1 to 4 times MIC by scanning electron microscopic analysis; type: subcellular
Staphylococcus aureus [10] = assay: Antibacterial activity against Staphylococcus aureus CGMCC1.8721 assessed as reduction in bacterial growth in presence of phosphatidylglycerol; type: functional
Staphylococcus aureus [11] = assay: Antibacterial activity against Methicillin-resistant Staphylococcus aureus CGMCC1.8721 infected in mouse skin infection model assessed as reduction in bacterial load at 10 mg/kg, sc; type: functional; parameters: scale not given: the % may be the effect or the level left
Staphylococcus aureus [12] = assay: Antibacterial activity against Staphylococcus aureus CGMCC1.8721 assessed as reduction in bacterial growth in presence of lipoteichoic acid; type: functional, organism-based
Staphylococcus aureus [13] = assay: Antibiofilm activity against Staphylococcus aureus CGMCC1.8721 assessed as inhibition of biofilm formation; type: functional, organism-based
Staphylococcus aureus [14] = assay: Antibacterial activity against methicillin-resistant Staphylococcus aureus ATCC 43300 assessed as reduction in bacterial growth in presence of K+; type: functional
Staphylococcus aureus [15] = assay: Antibacterial activity against Staphylococcus aureus CGMCC1.8721 assessed as induction of ROS production at 1 to 4 times MIC by DCFH-DA staining based flow cytometry analysis; type: functional, organism-based
Staphylococcus aureus [16] = assay: Antibacterial activity against methicillin-resistant Staphylococcus aureus ATCC 33591 assessed as reduction in bacterial growth in presence of Ca2+; type: functional
Cell membrane [17] = assay: Induction of membrane depolarization in Staphylococcus aureus CGMCC1.8721 assessed as increase in fluorescence intensity measured upto 30 mins by DiSC35 dye-based fluorescence assay; type: subcellular; settings: dose 2-8 µg/ml
Staphylococcus aureus [18] = assay: Antibacterial activity against methicillin-resistant Staphylococcus aureus ATCC 43300 assessed as reduction in bacterial growth in presence of Fe2+; type: functional
Staphylococcus aureus [19] = assay: Antibacterial activity against methicillin-resistant Staphylococcus aureus CGMCC 1.12409 assessed as reduction in bacterial growth in presence of Mg2+; type: functional
Cell membrane [20] = assay: Disruption of cell membrane integrity in Staphylococcus aureus CGMCC1.8721 assessed as appearance of uneven cell surface at 1 to 4 times MIC by scanning electron microscopic analysis; type: subcellular
Staphylococcus aureus [21] = assay: Antibacterial activity against Staphylococcus aureus CGMCC1.8721 assessed as reduction in bacterial growth at 4 to 8 times MIC measured at 0.5 hrs by time kill assay; type: functional; parameters: scale not given: the % may be the effect or the level left

`CCNCc1ccc2[nH]cc(C[C@@H](C)[C@H]3CC[C@H]4[C@@H]5CC[C@@H]6C[C@H](O)CC[C@]6(C)[C@H]5CC[C@]34C)c2c1` showed an MIC (Staphylococcus aureus [1]) of 1 µg/mL (≈ 2.04 µM), an MIC (Staphylococcus aureus [2]) of 1 µg/mL and a viability at up to 40 µM [3] of over 70%. The Activity (Cell membrane [4]) was “Active”, the Activity (HepG2) was “Active” and the HC50 [5] was over 128 µg/mL. The Activity (Staphylococcus aureus [6]) was “Active”, the MIC (Staphylococcus aureus [7]) was 1 µg/mL and the MIC (Staphylococcus aureus [8]) was 1 µg/mL. The Activity (Cell membrane [9]) was “Active”, the MIC (Staphylococcus aureus [10]) was 32 µg/mL and the Activity (Staphylococcus aureus [11]) was 76%. The Activity (Staphylococcus aureus [12]) was “inactive”, the Activity (Staphylococcus aureus [13]) was “Dose-dependent-effect” and the MIC (Staphylococcus aureus [14]) was 1 µg/mL. The Activity (Staphylococcus aureus [15]) was “Active”, the MIC (Staphylococcus aureus [16]) was 2 µg/mL and the Activity (Cell membrane [17]) was “Dose-dependent-effect”. The MIC (Staphylococcus aureus [18]) was 1 µg/mL, the MIC (Staphylococcus aureus [19]) was 2 µg/mL and the Activity (Cell membrane [20]) was “Active”. It also gave an Activity (Staphylococcus aureus [21]) of 100%.
